Results published in ChEMBL document CHEMBL1201862, “PubChem BioAssay data set” (2004).
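Cultured in 96-well plates, cells were exposed to test compound for 48 hours across five concentrations. Abbreviation: GI50, concentration required for 50% inhibition of growth.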 The source made the active and inactive calls. Cut-off read from the data, not from the text of the source: active = GI50 up to about 1.1 µM and inactive = higher.

What was measured:
Assay in all cases: inhibition of tumour cell growth, NCI panel, 48 h
[1] = system: BT-549
[2] = system: DU-145
[3] = system: COLO 205
[4] = system: NCI-H522
[5] = system: Hs-578T
[6] = system: SK-MEL-2
[7] = system: CAKI-1
[8] = system: OVCAR-5
[9] = system: IGROV-1
[10] = system: HOP-92
[11] = system: K562
[12] = system: OVCAR-3
[13] = system: HCT-116
[14] = system: SK-MEL-28
[15] = system: A498
[16] = system: MDA-N
[17] = system: SNB-19
[18] = system: Malme-3M
[19] = system: SR

Measured: GI50

O=C(NCC1Nc2ccncc2S(=O)(=O)N1)c1ccc(Br)cc1 (stereo unspecified)
inactive: [1] 69.7 µM | [2] 77.6 µM | [3] > 100 µM | [4] 28.2 µM | [5] 32.2 µM | [6] 14.9 µM | [7] > 100 µM | [8] > 100 µM | [9] 80.5 µM | [10] 34.4 µM | [11] 33.2 µM | [12] 30.8 µM | [13] 43.9 µM | [14] 92.5 µM | [15] > 100 µM | [16] 23.7 µM | [17] 81.3 µM | [18] 28.8 µM

CC(C)Oc1c(C2(c3ccccc3O)SCCCS2)c(=O)c1=O
inactive: [1] 42.5 µM | [2] 93.3 µM | [3] > 100 µM | [4] 23.6 µM | [5] > 100 µM | [6] > 100 µM | [7] > 100 µM | [8] 38.7 µM | [9] 30.3 µM | [10] 19.7 µM | [12] 79.3 µM | [13] > 100 µM | [14] > 100 µM | [15] 62.8 µM | [16] > 100 µM | [17] 73.3 µM

C[C@H](C/C=C/C(C)(C)O)[C@H]1CC[C@@]2(C)[C@@H]3CC[C@H]4C(C)(C)[C@@H](O)CC[C@@]45C[C@@]35CC[C@]12C
inactive: [1] 34.1 µM | [2] 15.4 µM | [4] 2.37 µM | [5] 11.2 µM | [6] 17.3 µM | [8] 14.4 µM | [9] 22.4 µM | [10] 11.3 µM | [11] 6.31 µM | [12] 50.5 µM | [13] 18.2 µM | [14] 18.8 µM | [15] 21 µM | [16] 34.1 µM | [17] 25.5 µM

Cc1sc(Nc2ccc(Nc3nc(-c4ccccc4)c(C)s3)cc2)nc1-c1ccccc1
inactive: [1] > 100 µM | [2] 74 µM | [3] 16.2 µM | [4] 35.4 µM | [5] > 100 µM | [6] 21.7 µM | [7] 88.1 µM | [8] > 100 µM | [9] > 100 µM | [10] > 100 µM | [11] 18.6 µM | [12] > 100 µM | [19] 20.9 µM | [13] 62.2 µM | [14] > 100 µM | [15] 21.8 µM | [17] > 100 µM | [18] > 100 µM

C/C=C(C)/C=C/CC(C)CCC=C(C)C (stereo unspecified)
inactive: [1] > 100 µM | [2] > 100 µM | [3] > 100 µM | [6] > 100 µM | [7] > 100 µM | [8] > 100 µM | [9] > 100 µM | [10] > 100 µM | [11] > 100 µM | [12] > 100 µM | [19] > 100 µM | [13] > 100 µM | [14] > 100 µM | [15] > 100 µM | [16] > 100 µM | [17] > 100 µM

Cn1ccnc1Sc1ccc(/C=N\NC(=O)c2cccc(F)c2)cc1[N+](=O)[O-]
inactive: [1] 40.8 µM | [2] 71.6 µM | [3] > 100 µM | [4] 24.7 µM | [5] 24.2 µM | [6] 30.8 µM | [7] > 100 µM | [8] > 100 µM | [9] 18.8 µM | [10] 22.7 µM | [11] > 100 µM | [12] 50 µM | [19] 33.2 µM | [13] 83.9 µM | [14] 79.4 µM | [15] 29.8 µM | [17] 27.8 µM | [18] > 100 µM

COC(=O)[C@H]1CO[C@H]2C/C(C)=C/CC/C(C)=C/CC[C@@]3(C)O[C@@H]3C[C@H]21
inactive: [1] 7.8 µM | [2] 23.7 µM | [3] 10.8 µM | [4] 8.79 µM | [5] 14 µM | [6] 18 µM | [7] 36.1 µM | [8] > 50 µM | [9] 16 µM | [10] 17.5 µM | [11] 7.69 µM | [12] 10.1 µM | [19] 10.6 µM | [13] 9.91 µM | [14] 13.4 µM | [15] 22.9 µM | [17] > 50 µM

OCc1ccc2c(c1)CC1(C2)Cc2cc3c(cc2C1O)CCC3 (stereo unspecified)
inactive: [1] 2.86 µM | [2] 9.1 µM | [3] 3.17 µM | [4] 3.23 µM | [5] 2.71 µM | [6] 3.33 µM | [7] 5.25 µM | [8] 18.9 µM | [9] 4.84 µM | [10] 12.2 µM | [11] 1.58 µM | [12] 4.78 µM | [19] 2.33 µM | [13] 3.37 µM | [14] 6.34 µM | [15] 4.44 µM | [17] 4.97 µM | [18] 5.01 µM
